{"source": "ChEMBL document CHEMBL4385621", "about": "“Synthesis and in vitro cytotoxicity evaluation of β-carboline-combretastatin carboxamides as apoptosis inducing agents: DNA intercalation and topoisomerase-II inhibition” (Bioorg Med Chem, 2019)", "key": {"HeLa": {"system": "HeLa", "assay": "Antiproliferative activity against human HeLa cells assessed as reduction in cell viability after 48 hrs by SRB assay", "assay_type": "functional, cell-based"}, "DU-145": {"system": "DU-145", "assay": "Antiproliferative activity against human DU145 cells assessed as reduction in cell viability after 48 hrs by SRB assay", "assay_type": "functional, cell-based", "conditions": "DU-145, 48 h"}, "A549 [1]": {"system": "A549", "assay": "Antiproliferative activity against human A549 cells assessed as reduction in cell viability after 48 hrs by SRB assay", "assay_type": "functional, cell-based", "conditions": "A549, 48 h"}, "A549 [2]": {"system": "A549", "assay": "Cell cycle arrest in human A549 cells assessed as increase in accumulation of G2/M phase at 1 to 5 uM after 24 hrs by propidium iodide staining based flow cytometric analysis", "assay_type": "functional"}, "A549 [3]": {"system": "A549", "assay": "Cell cycle arrest in human A549 cells assessed as reduction in G0/G1 phase at 1 to 5 uM after 24 hrs by propidium iodide staining based flow cytometric analysis", "assay_type": "functional"}, "[4]": {"target": "DNA topoisomerase II (Homo sapiens) (UniProt P11388+Q02880)", "assay": "Inhibition of human topoisomerase-2 assessed as reduction in decatenation of kDNA at 10 uM incubated for 30 mins by ethidium bromide staining based agarose gel electrophoresis method", "assay_type": "protein assay"}, "A549 [5]": {"system": "A549", "assay": "Induction of apoptosis in human A549 cells assessed as reduction in cell viability at 1 to 5 uM after 24 hrs by phase contrast microscopic method", "assay_type": "functional, cell-based"}, "A549 [6]": {"system": "A549", "assay": "Induction of apoptosis in human A549 cells assessed as cell shrinkage at 1 to 5 uM after 24 hrs by phase contrast microscopic method", "assay_type": "functional, cell-based"}, "A549 [7]": {"system": "A549", "assay": "Induction of apoptosis in human A549 cells assessed as cell detachment from substratum at 1 to 5 uM after 24 hrs by phase contrast microscopic method", "assay_type": "functional, cell-based"}, "A549 [8]": {"system": "A549", "assay": "Induction of apoptosis in human A549 cells assessed as nuclear fragmentation at 1 uM after 24 hrs by Hoechst […] staining based fluorescence microscopic method", "assay_type": "functional, cell-based"}, "A549 [9]": {"system": "A549", "assay": "Induction of apoptosis in human A549 cells assessed as chromatin condensation at 1 uM after 24 hrs by Hoechst […] staining based fluorescence microscopic method", "assay_type": "functional, cell-based"}, "A549 [10]": {"system": "A549", "assay": "Induction of apoptosis in human A549 cells assessed as increase in apoptotic nuclei at 3 to 5 uM after 24 hrs by Hoechst […] staining based fluorescence microscopic method", "assay_type": "functional, cell-based"}, "A549 [11]": {"system": "A549", "assay": "Induction of apoptosis in human A549 cells assessed as increase in ROS generation at 1 to 5 uM after 24 hrs by Carboxy-DCFDA dye based fluorescence microscopic method", "assay_type": "functional, cell-based"}, "A549 [12]": {"system": "A549", "assay": "Induction of apoptosis in human A549 cells assessed as viable cells at 1 uM after 24 hrs by Annexin V-FITC/propidium iodide staining based flow cytometry (reference value: 88.4%)", "assay_type": "functional", "conditions": "A549, 24 h, read-out: Activity"}, "A549 [13]": {"system": "A549", "assay": "Induction of apoptosis in human A549 cells assessed as early apoptotic cells at 1 uM after 24 hrs by Annexin V-FITC/propidium iodide staining based flow cytometry (reference value: 11.2%)", "assay_type": "functional"}, "A549 [14]": {"system": "A549", "assay": "Induction of apoptosis in human A549 cells assessed as late apoptotic cells at 1 uM after 24 hrs by Annexin V-FITC/propidium iodide staining based flow cytometry (reference value: 0.4%)", "assay_type": "functional"}, "A549 [15]": {"system": "A549", "assay": "Induction of apoptosis in human A549 cells assessed as necrotic cells at 1 uM after 24 hrs by Annexin V-FITC/propidium iodide staining based flow cytometry (reference value: 0%)", "assay_type": "functional"}, "A549 [16]": {"system": "A549", "assay": "Induction of apoptosis in human A549 cells assessed as viable cells at 3 uM after 24 hrs by Annexin V-FITC/propidium iodide staining based flow cytometry (reference value: 88.4%)", "assay_type": "functional", "conditions": "A549, 24 h, read-out: Activity"}, "A549 [17]": {"system": "A549", "assay": "Induction of apoptosis in human A549 cells assessed as early apoptotic cells at 3 uM after 24 hrs by Annexin V-FITC/propidium iodide staining based flow cytometry (reference value: 11.2%)", "assay_type": "functional"}, "A549 [18]": {"system": "A549", "assay": "Induction of apoptosis in human A549 cells assessed as late apoptotic cells at 3 uM after 24 hrs by Annexin V-FITC/propidium iodide staining based flow cytometry (reference value: 0.4%)", "assay_type": "functional"}, "A549 [19]": {"system": "A549", "assay": "Induction of apoptosis in human A549 cells assessed as necrotic cells at 3 uM after 24 hrs by Annexin V-FITC/propidium iodide staining based flow cytometry (reference value: 0%)", "assay_type": "functional"}, "A549 [20]": {"system": "A549", "assay": "Induction of apoptosis in human A549 cells assessed as viable cells at 5 uM after 24 hrs by Annexin V-FITC/propidium iodide staining based flow cytometry (reference value: 88.4%)", "assay_type": "functional", "conditions": "A549, 24 h, read-out: Activity"}, "A549 [21]": {"system": "A549", "assay": "Induction of apoptosis in human A549 cells assessed as early apoptotic cells at 5 uM after 24 hrs by Annexin V-FITC/propidium iodide staining based flow cytometry (reference value: 11.2%)", "assay_type": "functional"}, "A549 [22]": {"system": "A549", "assay": "Induction of apoptosis in human A549 cells assessed as late apoptotic cells at 5 uM after 24 hrs by Annexin V-FITC/propidium iodide staining based flow cytometry (reference value: 0.4%)", "assay_type": "functional"}, "A549 [23]": {"system": "A549", "assay": "Induction of apoptosis in human A549 cells assessed as necrotic cells at 5 uM after 24 hrs by Annexin V-FITC/propidium iodide staining based flow cytometry (reference value: 0%)", "assay_type": "functional"}, "Calf thymus DNA [24]": {"system": "Calf thymus DNA", "assay": "Binding affinity to calf thymus DNA assessed as dissociation constant after 5 mins by UV-Visible spectroscopic method", "assay_type": "nucleic-acid assay, Bos taurus"}, "Calf thymus DNA [25]": {"system": "Calf thymus DNA", "assay": "Binding affinity to calf thymus DNA assessed as decrease in emission peak intensity by spectrofluorimetric method", "assay_type": "nucleic-acid assay", "conditions": "Bos taurus"}, "Calf thymus DNA [26]": {"system": "Calf thymus DNA", "assay": "Stabilization of calf thymus DNA assessed as hyperchromicity at DNA to compound ratio of 1:1 by circular dichroism spectropolarimetric analysis", "assay_type": "nucleic-acid assay", "conditions": "Bos taurus"}, "Calf thymus DNA [27]": {"system": "Calf thymus DNA", "assay": "Binding affinity to calf thymus DNA assessed as decrease in emission peak intensity using varying DNA level by spectrofluorimetric method", "assay_type": "nucleic-acid assay", "conditions": "Bos taurus"}, "Calf thymus DNA [28]": {"system": "Calf thymus DNA", "assay": "Binding affinity to calf thymus DNA assessed as hypochromicity after 5 mins by UV-Vis absorption spectral analysis", "assay_type": "nucleic-acid assay", "conditions": "Bos taurus"}, "Calf thymus DNA [29]": {"system": "Calf thymus DNA", "assay": "Binding affinity to calf thymus DNA assessed as hypochromicity at DNA to compound ratio of 1:1 to 1:2 by circular dichroism analysis", "assay_type": "nucleic-acid assay", "conditions": "Bos taurus"}, "Calf thymus DNA [30]": {"system": "Calf thymus DNA", "assay": "Binding affinity to calf thymus DNA assessed as unwinding effect at DNA to compound ratio of 1:1 to 1:2 by circular dichroism analysis", "assay_type": "nucleic-acid assay", "conditions": "Bos taurus"}, "Calf thymus DNA [31]": {"system": "Calf thymus DNA", "assay": "Binding affinity to calf thymus DNA assessed as confirmational change at DNA to compound ratio of 1:1 to 1:2 by circular dichroism analysis", "assay_type": "nucleic-acid assay", "conditions": "Bos taurus"}, "A549 [32]": {"system": "A549", "assay": "Induction of apoptosis in human A549 cells after 24 hrs by Annexin V-FITC/propidium iodide staining based flow cytometry", "assay_type": "functional, cell-based"}, "Calf thymus DNA [33]": {"system": "Calf thymus DNA", "assay": "Effect on calf thymus DNA stabilization assessed as increase in negative band intensity by circular dichroism spectropolarimetric analysis", "assay_type": "nucleic-acid assay", "conditions": "Bos taurus"}}, "note": "pIC50, pKd: −log10 of the molar value. Activity calls are given as the source filed them. The calls are words filed in the database; no cut-off is given here."}
{"molecule": "COc1cc(/C(=C\\c2ccc(C(F)(F)F)cc2)C(=O)NCc2cc3c([nH]c4ccccc43)c(-c3cccc(F)c3)n2)cc(OC)c1OC", "values": [{"measurement": "pIC50", "setting": "HeLa", "value": 5.00}, {"measurement": "pIC50", "setting": "DU-145", "value": 5.82}, {"measurement": "pIC50", "setting": "A549 [1]", "value": 6.00}, {"measurement": "Activity", "setting": "A549 [2]", "value": "Dose-dependent effect"}, {"measurement": "Activity", "setting": "A549 [3]", "value": "Active"}, {"measurement": "inhibition", "setting": "[4]", "value": "Active"}, {"measurement": "Activity", "setting": "A549 [5]", "value": "Active"}, {"measurement": "Activity", "setting": "A549 [6]", "value": "Active"}, {"measurement": "Activity", "setting": "A549 [7]", "value": "Active"}, {"measurement": "Activity", "setting": "A549 [8]", "value": "Active"}, {"measurement": "Activity", "setting": "A549 [9]", "value": "Active"}, {"measurement": "Activity", "setting": "A549 [10]", "value": "Active"}, {"measurement": "Activity", "setting": "A549 [11]", "value": "Active"}, {"measurement": "viability at 1 µM", "setting": "A549 [12]", "value": 69.7, "unit": "%"}, {"measurement": "Activity", "setting": "A549 [13]", "value": 20.4, "unit": "%"}, {"measurement": "Activity", "setting": "A549 [14]", "value": 6.8, "unit": "%"}, {"measurement": "Activity", "setting": "A549 [15]", "value": 3.2, "unit": "%"}, {"measurement": "viability at 3 µM", "setting": "A549 [16]", "value": 62.8, "unit": "%"}, {"measurement": "Activity", "setting": "A549 [17]", "value": 28.6, "unit": "%"}, {"measurement": "Activity", "setting": "A549 [18]", "value": 6.7, "unit": "%"}, {"measurement": "Activity", "setting": "A549 [19]", "value": 1.9, "unit": "%"}, {"measurement": "viability at 5 µM", "setting": "A549 [20]", "value": 59.3, "unit": "%"}, {"measurement": "Activity", "setting": "A549 [21]", "value": 33.4, "unit": "%"}, {"measurement": "Activity", "setting": "A549 [22]", "value": 4.9, "unit": "%"}, {"measurement": "Activity", "setting": "A549 [23]", "value": 2.4, "unit": "%"}, {"measurement": "pKd", "setting": "Calf thymus DNA [24]", "value": 4.15}, {"measurement": "Activity", "setting": "Calf thymus DNA [25]", "value": "Active"}, {"measurement": "Activity", "setting": "Calf thymus DNA [26]", "value": "Active"}, {"measurement": "Activity", "setting": "Calf thymus DNA [27]", "value": "Active"}, {"measurement": "Activity", "setting": "Calf thymus DNA [28]", "value": "Active"}, {"measurement": "Activity", "setting": "Calf thymus DNA [29]", "value": "Active"}, {"measurement": "Activity", "setting": "Calf thymus DNA [30]", "value": "Active"}, {"measurement": "Activity", "setting": "Calf thymus DNA [31]", "value": "Active"}, {"measurement": "Activity", "setting": "A549 [32]", "value": "Dose-dependent effect"}, {"measurement": "Activity", "setting": "Calf thymus DNA [33]", "value": "Active"}]}
